pIC50: −log10 of the molar value.
Target: T1, human P2X4 (Homo sapiens, UniProt Q99571)
T1 sequence (Q99571 1-388): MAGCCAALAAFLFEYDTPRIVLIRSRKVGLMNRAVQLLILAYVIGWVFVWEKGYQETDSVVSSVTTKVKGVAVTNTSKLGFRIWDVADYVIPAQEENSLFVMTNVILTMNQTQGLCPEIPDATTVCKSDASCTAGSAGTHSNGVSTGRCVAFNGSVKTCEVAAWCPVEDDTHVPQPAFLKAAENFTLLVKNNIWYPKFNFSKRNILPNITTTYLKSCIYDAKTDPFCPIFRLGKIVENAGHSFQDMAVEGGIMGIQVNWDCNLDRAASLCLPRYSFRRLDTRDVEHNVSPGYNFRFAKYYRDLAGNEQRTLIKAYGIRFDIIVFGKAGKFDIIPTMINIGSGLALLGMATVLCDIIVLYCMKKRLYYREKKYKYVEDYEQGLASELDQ
Experiment: Human P2X4 HEK Cell FLIPR Assay
Assay type: cell-based
Details: agonist Bz-ATP at EC80; for Emax: HEK293, HEK293 cells, percentage of maximal inhibition, read-out: Human P2X4 HEK Cells (FLIPR Assay) avg Efficacy [%]; for pIC50: HEK293 cells, individual values listed where some fall outside detection range
In short: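 Calcium flux read by FLIPR for 120 sec after Bz-ATP challenge at EC80 (established each assay day), following 30 min room-temperature compound preincubation in dye-loaded stable human P2X4 HEK293 cells. Peak RFU over basal normalized to agonist control; IC50, maximal inhibition and Hill coefficient from triplicate means.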

| SMILES | Emax | pIC50 |
| --- | --- | --- |
| NS(=O)(=O)c1cc(NC(=O)Cc2cc(Cl)ccc2Cl)ccc1-n1cc(Cl)cn1 [Example 99, N-[4-(4-Chloro-1H-pyrazol-1-yl)-3-sulfamoylphenyl]-2-(2,5-dichlorophenyl)acetamide] | 87% | 6.30 |
| NS(=O)(=O)c1cc(NC(=O)Cc2cccc(F)c2F)ccc1-n1cc(F)cn1 [Example 155, 2-(2,3-Difluorophenyl)-N-[4-(4-fluoro-1H-pyrazol-1-yl)-3-sulfamoylphenyl]acetamide] | 86% | 6.97 |
| NS(=O)(=O)c1cc(NC(=O)Cc2ccccc2Cl)ccc1-n1cnc2cccnc21 [Example 43, 2-(2-Chlorophenyl)-N-[4-(3H-imidazo[4,5-b]pyridin-3-yl)-3-sulfamoylphenyl]-acetamide] | 87% | 6.68 |
| NS(=O)(=O)c1cc(NC(=O)Cc2ccccc2Cl)c(C(F)(F)F)cc1-c1cnn(C(F)F)c1 [Example 491, 2-(2-Chlorophenyl)-N-{4-[1-(difluoromethyl)-1H-pyrazol-4-yl]-5-sulfamoyl-2-(trifluoromethyl)phenyl}acetamide] | 67% | 5.04 |
| NS(=O)(=O)c1cc(NC(=O)Cc2cc(F)c(F)cc2Cl)ccc1-n1cc(C(F)(F)F)cn1 [Example 130, 2-(2-Chloro-4,5-difluorophenyl)-N-{3-sulfamoyl-4-[4-(trifluoromethyl)-1H-pyrazol-1-yl]phenyl}acetamide] | 71% | 6.55 |
| NS(=O)(=O)c1cc(NC(=O)Cc2ccc(Cl)cc2Cl)ccc1-c1ccc(Cl)nc1 [Example 465, N-[4-(6-Chloropyridin-3-yl)-3-sulfamoylphenyl]-2-(2,4-dichlorophenyl)acetamide] | 92% | 7.59 |
| N#Cc1cnn(-c2ccc(NC(=O)Cc3ccc(C(F)F)cc3)cc2S(N)(=O)=O)c1 [Example 219, N-[4-(4-Cyano-1H-pyrazol-1-yl)-3-sulfamoylphenyl]-2-[4-(difluoromethyl)-phenyl]acetamide] | 65% | 6.60 |
| NS(=O)(=O)c1cc(NC(=O)Cc2ccccc2Cl)ccc1-c1cnn(C2CC2)c1 [Example 349, 2-(2-Chlorophenyl)-N-[4-(1-cyclopropyl-1H-pyrazol-4-yl)-3-sulfamoylphenyl]acetamide] | 99% |  |
| CC(C)c1cnn(-c2ccc(NC(=O)Cc3ccccc3Cl)cc2S(N)(=O)=O)c1 [Example 516, 2-(2-Chlorophenyl)-N-[4-(4-isopropyl-1H-pyrazol-1-yl)-3-sulfamoylphenyl]acetamide] | 68% | 7.02 |
| N#Cc1cnn(-c2ccc(NC(=O)Cc3ccncc3Cl)cc2S(N)(=O)=O)c1 [Example 218, 2-(3-Chloropyridin-4-yl)-N-[4-(4-cyano-1H-pyrazol*1-yl)-3-sulfamoyl-phenyl]acetamide] | 92% | 6.02 |
| NS(=O)(=O)c1cc(NC(=O)Cc2ccccc2C(F)(F)F)ccc1-n1cc(C(F)(F)F)cn1 [Example 22, N-{3-Sulfamoyl-4-[4-(trifluoromethyl)-1H-pyrazol-1-yl]phenyl}-2-[2-(trifluoromethyl)-phenyl]acetamide] | 76% | 6.65 |
| NS(=O)(=O)c1cc(NC(=O)Cc2cc(F)cc(F)c2)ccc1-n1cc(C(F)(F)F)cn1 [Example 115, 2-(3,5-Difluorophenyl)-N-{3-sulfamoyl-4-[4-(trifluoromethyl)-1H-pyrazol-1-yl]phenyl}-acetamide] | 57% | 6.10 |
| COc1ccc(CC(=O)Nc2ccc(-n3ncc(C(F)(F)F)n3)c(S(N)(=O)=O)c2)cc1 [Example 406, 2-(4-Methoxyphenyl)-N-{3-sulfamoyl-4-[4-(trifluoromethyl)-2H-1,2,3-triazol-2-yl]phenyl}acetamide] | 64% | 5.17 |
| NS(=O)(=O)c1cc(NC(=O)Cc2ccccc2Cl)ccc1-c1cnc(NCC(F)(F)F)nc1 [Example 315, 2-(2-Chlorophenyl)-N-(3-sulfamoyl-4-{2-[(2,2,2-trifluoroethyl)amino]pyrimidin-5-yl}phenyl)acetamide] | 81% | 7.47 |
| N#Cc1cnn(-c2ccc(NC(=O)Cc3ccc(O)cc3)cc2S(N)(=O)=O)c1 [Example 194, N-[4-(4-Cyano-1H-pyrazol-1-yl)-3-sulfamoylphenyl]-2-(4-hydroxyphenyl)acetamide] | 84% | 6.49 |
| Cc1cnn(-c2ccc(NC(=O)Cc3ccccc3F)cc2S(N)(=O)=O)c1 [Example 262, 2-(2-Fluorophenyl)-N-[4-(4-methyl-1H-pyrazol-1-yl)-3-sulfamoylphenyl]acetamide] | 92% | 6.63 |
| Cc1ncc(-c2ccc(NC(=O)Cc3ccccc3Cl)cc2S(N)(=O)=O)s1 [Example 423, 2-(2-Chlorophenyl)-N-[4-(2-methyl-1,3-thiazol-5-yl)-3-sulfamoylphenyl]acetamide] | 86% | 7.28 |
| NS(=O)(=O)c1cc(NC(=O)Cc2ccccc2F)ccc1-n1cnc(C(F)F)n1 [Example 18, N-{4-[3-(Difluoromethyl)-1H-1,2,4-triazol-1-yl]-3-sulfamoylphenyl}-2-(2-fluoro-phenyl)acetamide] | 66% | 5.33 |
| COc1ccc(CC(=O)Nc2ccc(-n3cc(C#N)cn3)c(S(N)(=O)=O)c2)cc1 [Example 196, N-[4-(4-Cyano-1H-pyrazol-1-yl)-3-sulfamoylphenyl]-2-(4-methoxyphenyl)acetamide] | 75% | 6.79 |
| NS(=O)(=O)c1cc(NC(=O)Cc2ccc(F)cc2Cl)ccc1-n1cnc(C(F)(F)F)n1 [Example 56, 2-(2-Chloro-4-fluorophenyl)-N-{3-sulfamoyl-4-[3-(trifluoromethyl)-1H-1,2,4-triazol-1-yl]phenyl}acetamide] | 70% | 6.92 |
| NS(=O)(=O)c1cc(NC(=O)Cc2cccc(F)c2F)ccc1-n1cc(Cl)cn1 [Example 87, N-[4-(4-Chloro-1H-pyrazol-1-yl)-3-sulfamoylphenyl]-2-(2,3-difluorophenyl)acetamide] | 82% | 6.47 |
| NS(=O)(=O)c1cc(NC(=O)Cc2ccccc2Cl)ccc1-c1cncc(OC(F)F)c1 [Example 289, 2-(2-Chlorophenyl)-N-{4-[5-(difluoromethoxy)pyridin-3-yl]-3-sulfamoylphenyl}acetamide] | 89% | 8.22 |
| Cc1ccccc1CC(=O)Nc1ccc(-n2cc(C#N)cn2)c(S(N)(=O)=O)c1 [Example 197, N-[4-(4-Cyano-1H-pyrazol-1-yl)-3-sulfamoylphenyl]-2-(2-methylphenyl)acetamide] | 87% | 7.07 |
| N#Cc1cnn(-c2ccc(NC(=O)Cc3ccc(Cl)cc3Cl)cc2S(N)(=O)=O)c1 [Example 186, N-[4-(4-Cyano-1H-pyrazol-1-yl)-3-sulfamoylphenyl]-2-(2,4-dichlorophenyl)acetamide] | 78% | 7.40 |
| NS(=O)(=O)c1cc(NC(=O)Cc2ccc(F)c(F)c2)ccc1-n1cc(Cl)cn1 [Example 81, N-[4-(4-Chloro-1H-pyrazol-1-yl)-3-sulfamoylphenyl]-2-(3,4-difluorophenyl)acetamide] | 40% | < 4.60 |
| NS(=O)(=O)c1cc(NC(=O)Cc2ccccc2Cl)ccc1-n1ncnc1C1CC1 [Example 37, 2-(2-Chlorophenyl)-N-[4-(5-cyclopropyl-1H-1,2,4-triazol-1-yl)-3-sulfamoyl-phenyl]acetamide] | 81% | 6.07 |

From patent US11524938B2, “Aromatic sulfonamide derivatives” (Bayer Pharma Aktiengesellschaft, priority 2016, dated 2022)
